Experimental data from patent US9988381B2, “Five-member-heterocycle fused pyridine compounds, method of producing the same, and use thereof” (SHANGHAI INSTITUTE OF MATERIA MEDICA, CHINESE ACADEMY OF …, priority 2013, dated 2018).
Read-outs that look alike come from different tables or passages of the source.

Legend:
[1] = target: T1, c-Met kinase domain recombinant protein (Homo sapiens, UniProt P08581); test: biochemical; conditions: read-out: Inhibition rate at 10 μM (%)
T1 construct: 50 μL diluted solution of c-Met kinase domain recombinant protein in reaction buffer was added to initiate the reaction
Protocol: (§1) Enzymatic reaction substrate Poly(Glu,Tyr)4:1 was diluted to 20 μg/mL in potassium ion free PBS (10 mM sodium phosphate buffer, 150 mM NaCl, pH7.2-7.4), microplate was coated with this solution at 125 μL per well, and reacted at 37° C. for 12-16 hours. Liquid in wells was discarded. Plate washing: the plate was washed 3 times for 5 minutes each with 200 μL per well of T-PBS (potassium ion free PBS containing 0.1% Tween-20).
Into each well was added 49 μL diluted ATP solution in reaction buffer (50 mM HEPES pH 7.4, 50 mM MgCl2, 0.5 mM MnCl2, 0.2 mM Na3VO4, 1 mM DTT), and 1 μL per well of compound to be tested was added, then 50 μL diluted solution of c-Met kinase domain recombinant protein in reaction buffer was added to initiate the reaction, each test was setup with two wells of ATP free control. Reaction was performed in a 37° C. shaker (100 rpm) for 1 hour. Liquid in the wells was discarded, and the plate was washed three times with T-PBS.
Antibody PY99 was added at 100 μL per well (the antibody was 1:500 diluted in T-PBS containing 5 mg/mL BSA), incubated in a 37° C. shaker for 0.5 hour. Liquid in the wells was discarded, and the plate was washed three times with T-PBS.
Goat anti mouse secondary antibody labeled with horseradish peroxidase was added at 100 μL per well (the antibody was 1:2000 diluted in T-PBS containing 5 mg/mL BSA), incubated in a 37° C. shaker for 0.5 hour. Liquid in the wells was discarded, and the plate was washed three times with T-PBS.
Reaction was terminated by adding 50 μL per well of 2M H2SO4, the plate was read at 490 nm using a VERSAmax microplate reader with tunable wavelength.
(§2) Inhibition rate of the sample was calculated using the following equation: […]

[2] = target: T1, c-Met kinase domain recombinant protein; test: biochemical; conditions: for inhibition at 0.1 µM: read-out: Average inhibition rate at 0.1 μM (%); for inhibition at 1 µM: read-out: Average inhibition rate at 1 μM (%); for inhibition at 10 µM: read-out: Average inhibition rate at 10 μM (%)
Protocol: as §1, with “discarded, then” for “discarded. Plate washing:”, “(PBS” for “(potassium ion free PBS”
Into each well was added 50 μL diluted ATP solution in reaction buffer (50 mM HEPES pH 7.4, 50 mM MgCl2, 0.5 mM MnCl2, 0.2 mM Na3VO4, 1 mM DTT), the final concentration was 5 μM. Test compound was diluted in DMSO to proper concentration, added at 1 μL per well or corresponding level of DMSO (negative control wells), then 49 μL diluted solution of c-Met kinase domain recombinant protein in reaction buffer was added to initiate the reaction, each test was setup with two wells of ATP free control. Reaction was performed in a 37° C. shaker (100 rpm) for 1 hour. The plate was washed three times with T-PBS. Primary antibody PY99 diluted solution was added at 100 μL per well, incubated in a 37° C. shaker for 0.5 hour.
The plate was washed three times with T-PBS. Goat anti mouse secondary antibody labeled with horseradish peroxidase was added at 100 μL per well, incubated in a 37° C. shaker for 0.5 hour. The plate was washed three times with T-PBS. […] Reaction was terminated by adding 50 μL per well of 2M H2SO4, the plate was read at 490 nm using a SPECTRA MAX 190 microplate reader with tunable wavelength.
as §2
IC50 was calculated by fitting the data for a four parameter fit using inhibition curve.

T1 sequence (P08581 1078-1345 limits assumed): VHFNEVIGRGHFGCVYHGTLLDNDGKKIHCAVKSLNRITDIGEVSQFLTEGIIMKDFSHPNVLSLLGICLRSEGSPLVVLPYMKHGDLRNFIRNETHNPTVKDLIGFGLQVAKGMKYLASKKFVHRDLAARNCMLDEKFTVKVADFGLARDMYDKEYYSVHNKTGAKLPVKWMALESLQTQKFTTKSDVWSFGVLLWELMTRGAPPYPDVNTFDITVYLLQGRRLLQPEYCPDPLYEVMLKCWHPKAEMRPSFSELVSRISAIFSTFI

CN(C)C(=O)c1ccc(-c2cnc3cnn(S(=O)(=O)c4cnc5ccccn45)c3c2)cc1 [Example 41, 1-(imidazo[1,2-a]pyridine-3-sulfonyl)-6-(4-dimethylaminocarbonylphenyl)-1-H-pyrazolo[4,3-b]pyridine]
inhibition at 10 µM [1]: 68.7%
inhibition at 0.1 µM [2]: 45.1%
inhibition at 1 µM [2]: 54.6%
inhibition at 10 µM [2]: 68.7%

CN(C)c1ccc(-c2cnc3cnn(S(=O)(=O)c4cnc5ccccn45)c3c2)cc1 [Example 42, 1-(imidazo[1,2-a]pyridine-3-sulfonyl)-6-(4-dimethylaminophenyl)-1-H-pyrazolo[4,3-b]pyridine]
inhibition at 10 µM [1]: 67.5%
inhibition at 0.1 µM [2]: 45.5%
inhibition at 1 µM [2]: 58.4%
inhibition at 10 µM [2]: 67.5%

COc1ccc(OC)c(-c2cnc3cnn(S(=O)(=O)c4cnc5ccccn45)c3c2)c1 [Example 43, 1-(imidazo[1,2-a]pyridine-3-sulfonyl)-6-(2,5-dimethoxyphenyl)-1-H-pyrazolo[4,3-b]pyridine]
inhibition at 10 µM [1]: 58.4%
inhibition at 0.1 µM [2]: 23.1%
inhibition at 1 µM [2]: 47.6%
inhibition at 10 µM [2]: 68.7%

CC(C)(C)OC(=O)N1CCC(n2cc(-c3cnc4cnn(S(=O)(=O)c5cnc6ncccn56)c4c3)cn2)CC1 [Example 52, 1-(imidazo[1,2-a]pyrimidine-3-sulfonyl)-6-{{1-[(1-t-butoxycarbonyl)-4-piperidinyl]}-4-pyrazolyl}-1-H-pyrazolo[4,3-b]pyridine]
inhibition at 10 µM [1]: 54.5%
inhibition at 0.1 µM [2]: 24.5%
inhibition at 1 µM [2]: 50.3%
inhibition at 10 µM [2]: 54.5%

O=C(c1ccc(C(F)(F)F)cc1)N1CCC(n2cc(-c3cnc4cnn(S(=O)(=O)c5cnc6ccccn56)c4c3)cn2)CC1 [Example 58, 1-(imidazo[1,2-a]pyridine-3-sulfonyl)-6-{{1-[(1-p-trifluoromethylbenzoyl)-4-piperidinyl]}-4-pyrazolyl}-1-H-pyrazolo[4,3-b]pyridine]
inhibition at 10 µM [1]: 58.9%
inhibition at 0.1 µM [2]: 52.8%
inhibition at 1 µM [2]: 55.7%
inhibition at 10 µM [2]: 57.4%

CC(C)(C)OC(=O)N1CCC(n2cc(-c3cnc4cnn(S(=O)(=O)c5cnc6ccc(-c7cnn(C8CCN(C(=O)OC(C)(C)C)CC8)c7)nn56)c4c3)cn2)CC1 [Example 62, 1-{(6-{{1-[(1-t-butoxycarbonyl)-4-piperidinyl]}-4-pyrazolyl}-imidazo[1,2-b]pyridazine)-3-sulfonyl}-6-{{1-[(1-t-butoxycarbonyl)-4-piperidinyl]}-4-pyrazolyl}-1-H-pyrazolo[4,3-b]pyridine]
inhibition at 10 µM [1]: 62.6%
inhibition at 0.1 µM [2]: 73.2%
inhibition at 1 µM [2]: 73.2%
inhibition at 10 µM [2]: 80%

O=S(=O)(c1cnc2ccc(C(F)(F)F)cn12)n1ncc2ncc(-c3cnn(C4CCNCC4)c3)cc21 [Example 65]
inhibition at 10 µM [1]: 79.3%
inhibition at 0.1 µM [2]: 60.8%
inhibition at 1 µM [2]: 65.1%
inhibition at 10 µM [2]: 69.8%

CC(C)(C)OC(=O)N1CCC(n2cc(-c3cnc4cnn(S(=O)(=O)c5cnc6ccc(-c7cnn(C8CCN(C(=O)OC(C)(C)C)CC8)c7)cn56)c4c3)cn2)CC1 [Example 68, 1-{(6-{{1-[(1-t-butoxycarbonyl)-4-piperidinyl]}-4-pyrazolyl}-imidazo[1,2-a]pyridine)-3-sulfonyl}-6-{{1-[(1-t-butoxycarbonyl)-4-piperidinyl]}-4-pyrazolyl}-1-H-pyrazolo[4,3-b]pyridine]
inhibition at 10 µM [1]: 69.8%
inhibition at 0.1 µM [2]: 50.2%
inhibition at 1 µM [2]: 55.8%
inhibition at 10 µM [2]: 62%

CC(C)N1CCC(n2cc(-c3cnc4cnn(S(=O)(=O)c5cnc6ccc(C(F)(F)F)cn56)c4c3)cn2)CC1 [Example 69]
inhibition at 10 µM [1]: 79.9%
inhibition at 0.1 µM [2]: 52.3%
inhibition at 1 µM [2]: 57.7%
inhibition at 10 µM [2]: 59.6%

Cn1cc(-c2cnc3cnn(S(=O)(=O)c4cnc5ccc(Br)cn45)c3c2)cn1 [Example 70, 1-[(6-bromo-imidazo[1,2-a]pyridine)-3-sulfonyl]-6-[(1-methyl)-4-pyrazolyl]-1-H-pyrazolo[4,3-b]pyridine]
inhibition at 10 µM [1]: 68.2%
inhibition at 1 µM [2]: 44.7%
inhibition at 10 µM [2]: 79.3%

Cn1cc(-c2cnc3cnn(S(=O)(=O)c4cnc5ccc(-c6ccccc6)cn45)c3c2)cn1 [Example 71, 1-[(6-phenyl-imidazo[1,2-a]pyridine)-3-sulfonyl]-6-[(1-methyl)-4-pyrazolyl]-1-H-pyrazolo[4,3-b]pyridine]
inhibition at 10 µM [1]: 62%
IC50 [2]: 0.1 ± 0.01 nM
inhibition at 0.1 µM [2]: 68.5%
inhibition at 1 µM [2]: 73.4%
inhibition at 10 µM [2]: 83.8%

Cn1cc(-c2cnc3cnn(S(=O)(=O)c4cnc5ccc(-c6cncnc6)cn45)c3c2)cn1 [Example 74, 1-{[6-(5-pyrimidine)-imidazo[1,2-a]pyridine]-3-sulfonyl}-6-[(1-methyl)-4-pyrazolyl]-1-H-pyrazolo[4,3-b]pyridine]
inhibition at 10 µM [1]: > 67.6%
inhibition at 10 µM [2]: 12.1%

Cn1cc(-c2cnc3cnn(S(=O)(=O)c4cnc5ccc(-c6ccc(N7CCOCC7)cc6)cn45)c3c2)cn1 [Example 75, 1-{[6-(4-morpholinylphenyl)-imidazo[1,2-a]pyridine]-3-sulfonyl}-6-[(1-methyl)-4-pyrazolyl]-1-H-pyrazolo[4,3-b]pyridine]
inhibition at 10 µM [1]: > 77.3%
inhibition at 0.1 µM [2]: 74.6%
inhibition at 1 µM [2]: 75.6%
inhibition at 10 µM [2]: 83.1%

Cn1cc(-c2cnc3cnn(S(=O)(=O)c4cnc5ccc(-c6ccc(C(F)(F)F)cc6)cn45)c3c2)cn1 [Example 77, 1-{[6-(4-trifluoromethylphenyl)-imidazo[1,2-a]pyridine]-3-sulfonyl}-6-[(1-methyl)-4-pyrazolyl]-1-H-pyrazolo[4,3-b]pyridine]
inhibition at 10 µM [1]: > 76.9%
inhibition at 0.1 µM [2]: 55.8%
inhibition at 1 µM [2]: 64.8%
inhibition at 10 µM [2]: 85.5%

Cc1ccc(-c2ccc3ncc(S(=O)(=O)n4ncc5ncc(-c6cnn(C)c6)cc54)n3c2)cc1F [Example 78, 1-{[6-(3-fluoro-4-methylphenyl)-imidazo[1,2-a]pyridine]-3-sulfonyl}-6-[(1-methyl)-4-pyrazolyl]-1-H-pyrazolo[4,3-b]pyridine]
inhibition at 10 µM [1]: > 12.1%
inhibition at 0.1 µM [2]: 64.5%
inhibition at 1 µM [2]: 69.3%
inhibition at 10 µM [2]: 89.3%

CC(C)Oc1ccc(-c2ccc3ncc(S(=O)(=O)n4ncc5ncc(-c6cnn(C)c6)cc54)n3c2)cc1 [Example 79]
inhibition at 10 µM [1]: > 83.1%
inhibition at 1 µM [2]: 30.5%
inhibition at 10 µM [2]: 77.4%

CN1CCN(C(=O)c2ccc(-c3ccc4ncc(S(=O)(=O)n5ncc6ncc(-c7cnn(C)c7)cc65)n4c3)cc2)CC1 [Example 80, 1-{[6-[4-(4-methylpiperazine-1-carbonyl)phenyl]-imidazo[1,2-a]pyridine]-3-sulfonyl}-6-[(1-methyl)-4-pyrazolyl]-1-H-pyrazolo[4,3-b]pyridine]
inhibition at 10 µM [1]: > 75.3%
inhibition at 1 µM [2]: 47.5%
inhibition at 10 µM [2]: 80.6%

Cn1cc(-c2cnc3cnn(S(=O)(=O)c4cnc5ccc(-c6cnn(C7CCNCC7)c6)cn45)c3c2)cn1 [Example 82, 1-{[6-([1-(4-piperidinyl)]-4-pyrazolyl)-imidazo[1,2-a]pyridine]-3-sulfonyl}-6-[(1-methyl)-4-pyrazolyl]-1-H-pyrazolo[4,3-b]pyridine chloride]
inhibition at 10 µM [1]: > 78.5%
inhibition at 0.1 µM [2]: 54.4%
inhibition at 1 µM [2]: 63.8%
inhibition at 10 µM [2]: 77.7%

Cn1cc(-c2cnc3cnn(S(=O)(=O)c4cnc5ccc(-c6cccc(C(F)(F)F)c6)cn45)c3c2)cn1 [Example 83, 1-{[6-(3-trifluoromethylphenyl)-imidazo[1,2-a]pyridine]-3-sulfonyl}-6-[(1-methyl)-4-pyrazolyl]-1-H-pyrazolo[4,3-b]pyridine]
inhibition at 10 µM [1]: > 79.8%
inhibition at 1 µM [2]: 44.4%
inhibition at 10 µM [2]: 77.7%
